Here are results for six compounds from paper PMC11311241, “In Situ Forming, Enzyme-Responsive Peptoid-Peptide Hydrogels: An Advanced Long-Acting Injectable Drug Delivery System” (Journal of the American Chemical Society, 2024).

One data set deals with HIV. As to conditions: cited from earlier work.
The conditions of data set [1]: rats.
Experimental: Female Sprague–Dawley rats (n = 18, aged 8–10 weeks, mean weight = 220 g) were purchased from Envigo and acclimatized for 1 week prior to experimentation.
This treatment was then administered intravenously to the tail vein (8.46 mg kg−1).15 The
extraction from blood plasma samples was possible. The peptoid-D-peptide experimental
injectable solution was formed by dissolving lyophilized UV-sterilized
mL) were obtained from the tail vein of each rat and collected in 1.5 mL preheparinized
group. Centrifugation (13,400 rpm, 10 min) was utilized to separate blood plasma
be analyzed via analytical RP-HPLC and a validated calibration curve (Figure S35) as outlined
The pharmacokinetic parameters were calculated using PKSolver 2.0.16, 17 The
parameters studied were the drug half-life (t1/2), the time to peak drug concentration (Tmax), the
maximum plasma concentration (Cmax), the area under the plasma concentration – time curve
from time zero to the last quantifiable concentration on day 35 (AUC0−35), the observed area
under the plasma concentration – time curve extrapolated from time zero to infinity (AUC0-
∞,obs) and the mean residence time (MRT) of the drug extrapolated from time zero to infinity.
For a further data set, the system named is alkaline phosphatase. As to conditions: for Strain at complete deformation (G′ and G″ intersect): strain sweep 0.1–1000%, 2.5 rad s-1, 5% w/v gels; for Strain at which the weaker network breaks / Strain at which the stronger second network or entanglement breaks: strain sweep, 5% w/v gels; for Strain at which the weaker network breaks: first deformation; for Strain at which the stronger second network or entanglement breaks: second deformation. The text has this: Our drug delivery system is partly defined by drug diffusion from the hydrogel matrix, and hydrolysis of the peptoid-peptide-drug chemical linker. Reproducing supramolecular gels’ mechanical properties is difficult, especially for peptide-based systems. Experimental parameters and formulation factors are particularly important, as highlighted recently by the Adams and Draper groups.[77],[78] Subtle experimental influences e.g. handling and temperature, can lead to issues with reproducibility. […] Loss (G″) and storage (G′) moduli, critical strain (%) and oscillatory time sweeps were performed to determine the rheological changes with time and the potential for rapid in situ hydrogel depot formation upon exposure to 3.98 U mL^–1 phosphatase enzyme. […] Hydrogel formation occurs when the storage modulus (G′) is at least 1 order of magnitude greater than the loss modulus (G″).[79]
Rapid gelation is important for in situ formation of drug delivery depots to reduce the diffusion of drug(s) from the depot and potential burst release. Quick gelation after injectable administration is also important for our system in order to reduce the availability of the peptoid-peptide ester linkage with the drug to water within the subcutaneous space, providing a diffusion barrier to rapid drug cleavage by hydrolysis.[84] There are several ways in which time for gelation can be defined: a) the time at which the storage modulus (G′) and loss modulus (G″) cross indicating greater solid-like behavior; b) the time point at which G′ is greater by 1 order of magnitude than G″; and c) the time at which G′ and G″ begin to stabilize/plateau. […]
(i) peptoid-peptide sequence dissolved in PBS prior to addition of 2 U alkaline phosphatase, (ii) after 2 U alkaline phosphatase addition and formulation as outlined in Table S2.
S.4. Oscillatory rheology
Anton Paar MCR302 rheometer (Anton Paar, St Albans, UK). Gels were formulated at a 2 mL volume in 7 mL Sterilin ™ vials as previously described .8 A vane and cup geometry was used to perform both frequency and strain sweeps. Frequency sweeps were performed at 37 °C from 1 – 100 rad s-1 at a strain of 0.5%. […] sweeps were perform ed at 37°C, 2.5 rad s-1 and a strain of 0.1 – 1000%. Gel strength was measured by determining the strain at which the gels […]
Table S3. Gelation times for peptoid-L-peptide and peptoid-D-peptide hydrogels upon addition of alkaline phosphatase enzyme derived from data in Figures S25 – S27 S40 and […]
* Mean value of storage modulus (G′) and loss modulus (G″) for each peptoid-peptide derived

The subject of data set [2] is NCTC 929 cells. Put plainly: MTS cell viability / metabolic activity assay. In kind it is cell-based, murine. The note with it: fully solubilized, 500 μM, 6, 24 and 72 h, vs media-only control, nine replicates. The procedure: (§1) Peptoid-peptide cell cytotoxicity studies were performed using the International Standard (ISO) murine fibroblast subcutaneous connective tissue NCTC 929 (ATCC CCL 1) cell line.[108],[116] Cell cytotoxicity was assessed using three separate assays, outlined fully in Section S.7 of the Supporting Information: (i) 3-(4,5-dimethylthiazol-2-yl)-5-(3-carboxymethoxyphenyl)-2-(4-sulfophenyl)-2H-tetrazolium (MTS) colorimetric assay, (ii) lactate dehydrogenase (LDH) release and (iii) a Live/Dead assay. The cytotoxicity of each peptoid-peptide was tested after 6 (LDH, MTS), 24 (Live/Dead, MTS) and 72 h (MTS) of exposure. […]
The MTS-based CellTiter 96 AQueous One Solution Cell Proliferation Assay (Promega, Southampton, UK) was used to analyze the metabolic activity of treated cells.3 UV absorption was measured at 490 nm using a Tecan Sunrise plate reader (Tecan UK Ltd, Reading, UK) and cell viability/percentage metabolic activity was calculated as outlined in Equation 2 below. […]
LDH release was quantified as a measure of cytotoxicity using a Cytotoxicity Detection KitPLUS assay (Sigma-Aldrich, Dorset, UK) as previously described.13 The cells were incubated, with each solubilized peptoid-peptide (20 – 500 μM) in combination with NCTC 929 cells for 6 hours, after which 100 μL of test reagent was added to each well, and incubated

Data set [3] is described as follows: In vitro zidovudine release from hydrogels in PBS, with KinetDS modelling. In kind it is physicochemical. The text has this:
This is typical of physically encapsulated drug release systems, which are prone to drug leakage and a high burst release.[8],[95] The release profile was monitored over the entire 28 day profile. […] Physically encapsulated systems are more applicable to acute drug delivery applications where rapid treatment, such as pain relief, is required at a high dose for a shorter time period. […] Drugs are released from the hydrogel systems in an unmodified form via simple hydrolysis of the drug-ester linkage under physiological conditions. In practice, diffusion through the peptoid-peptide hydrogel matrix and into the surrounding fluid would enable uptake into the systemic circulation. […] There appears to be a link between gelation times for peptoid-L-peptide and peptoid-D-peptide hydrogels, defined by rheological time sweeps (Figures 2f, S25c–f and Table S3). […] It is well established that rapid gel formation minimizes burst release of drug and this is especially relevant to our system,[96] whereby the presence of a gel should act as a diffusional barrier, reducing the ability of water to hydrolyze the covalent ester linkage between peptoid-peptide and drug.
KinetDS software was utilized to further understand the drug release kinetics of these novel peptoid-peptide hydrogel platforms. Various kinetic models, including zero-order, first-order, Korsmeyer–Peppas, Hixson–Crowell, Higuchi and Weibull models were applied to determine the mechanism of drug release. […] For injectable hydrogel-forming depots quantified by cumulative release, zero-order, first-order and Korsmeyer–Peppas models tend to be the most relevant for establishing the mechanism of drug release kinetics. The Higuchi model applies to drug release driven mainly by diffusion only and it is accepted that this model should not be used when hydrogel swelling may be a factor in release.[97]−[99] […] The Weibull model is associated more with nanoparticles and heterogeneous formulations; however its application in model injectable hydrogels is increasing.[101],[102] […] This indicates super case II transport (n > 0.85), whereby the drug is mainly released through the erosion of the polymer matrix and/or possibly hydrolysis of the ester-drug linkage where present.[99],[103]

The test system of data set [4] is NCTC 929 cells. In kind it is cell-based, murine. The note with it: 24 h, fluorescence microscopy. The method, then:
as §1
for a further 5 min. A stop reagent (50 μL) was then added, and the UV absorbance was measured at 490 nm using a Tecan Sunrise plate reader. […]
in absorbance: i) a high LDH release control representing 100% toxicity was generated by adding 5 μL of lysis solution to non-treated cells 15 min before the addition of the test reagent; ii) each peptoid-peptide was solubilized in media at the highest tested concentration (500 μM); iii) the LDH standard was added to the media; and iv) an equal volume of the highest solubilized peptoid-peptide concentration (500 μM) and the LDH standard were added to the media. The percentage of cell cytotoxicity was calculated using Equation 3 below and is reported once again as the mean of nine measurements (three replicates, repeated three times). […]

[5] abbreviates: plasma zidovudine, IV 8.46 mg kg−1, mean ± SEM, n = 6.
[6] abbreviates: 5% w/v, 1–100 rad s-1, strain 0.5%, 37 °C, mean.
The mark [7] stands for this setting: 5% w/v hydrogel, PBS pH 7.4, 37 °C, n = 3.
The mark [8] stands for this setting: KinetDS fit of 28 day release profile.

Like-named read-outs stand apart in the source and are kept apart here.

On to `Cc1cn([C@H]2C[C@H](N=[N+]=[N-])[C@@H](CO)O2)c(=O)[nH]c1=O` [zidovudine], for which, in the data set with HIV (90% maximal inhibitory concentration), the IC90 range is on record as 30–130 ng mL–1. Besides, in the data set with HIV, the “four times IC90 value (pharmacokinetic benchmark for HIV protection)” value is 120 ng mL–1. Besides, in data set [1] (setting [5]), the “MRT0-∞,obs” value was “approximately 1.58 hour” and the Tmax was found to be 0.58 ± 0.08 h. The “MRT0-∞,obs” value in data set [1] (plasma zidovudine, IV 8.46 mg kg−1, mean ± SEM, n = 6, listed as Zidovudine) was 1.58 ± 0.50 h. The “Time to undetectable plasma levels” value in data set [1] (IV control) is on record as at most 6 h. Also, the “Plasma peak zidovudine concentration” value in data set [1] (IV control, mean plasma profile (Figure 5a), n = 6) is on record as 7,500 ng mL–1.
Regarding “(NPhe)4GGGGK(AZT)Y(p)-OH [peptoid-L-peptide covalently attached to zidovudine via an ester linkage at the lysine position]”, in the data set with alkaline phosphatase (setting [6]), the “Mean loss modulus (G″) from frequency sweeps” value was determined as 112.18 and the “Mean storage modulus (G′) from frequency sweeps” value is 856.11. In the data set with alkaline phosphatase (5% w/v, frequency sweeps 1–100 rad s-1, strain 0.5%, 37 °C, from mean moduli), the “Tan δ = G″/G′ from freq sweeps” value came to 0.131. Further, in the data set on alkaline phosphatase (5% w/v, time sweep after addition of 3.98 U mL-1 alkaline phosphatase, n = 3), the “Gelation time: G′ and G″ cross” value was at most 1 min. Also, the “Time for G′ and G″ to stabilize” value in the data set on alkaline phosphatase (5% w/v, time sweep after addition of alkaline phosphatase) turned out to be 135 min. In addition, the “Effect on cell metabolic activity (MTS) at 500 μM” value in the data set with NCTC 929 cells [2] is reported as “cell toxicity was once again demonstrated only after 72 h”.
Regarding (NPhe)4GGGGK(AZT)Y-OH, in data set [3] (5% w/v hydrogel, PBS pH 7.4, 37 °C, % of loaded drug, n = 3), the “Cumulative zidovudine released in the first 72 h” value stood at 14.2%. Also, in data set [3] (setting [7]), the “Cumulative zidovudine released at the final time point (28 days)” value is recorded as 15.9% and the “Cumulative zidovudine released within the first 30 min” value was 11.04%. Also, in data set [3] (setting [8]), the “Weibull model shape factor β” value came to 0.9550±0.11 and the “Weibull model α” value is recorded as 5.362±0.75. Besides, in data set [3] (PBS pH 7.4, 37 °C, chemically conjugated vs physically encapsulated zidovudine), the “Reduction of drug release in the first 72 h versus physical encapsulation” value was about 88%. Further, the “Strain at complete deformation (G′ and G″ intersect)” value with alkaline phosphatase (37 °C) is recorded as about 44%. Further, in the data set on alkaline phosphatase, the “Strain at which the weaker network breaks” value is about 4% and the “Strain at which the stronger second network or entanglement breaks” value is about 17.5%.
(NPhe)4GGGGKY-OH: the “Weibull model shape factor β” value in data set [3] (setting [8]) was determined as 0.9550. In addition, in the data set with alkaline phosphatase, the “Strain at which the weaker network breaks” value is on record as about 5.78% and the “Strain at which the stronger second network or entanglement breaks” value is about 36.5%.
On to “(NPhe)4GGGGky(p)-OH [tetrabenzylamine-tetraglycine-D-lysine-O-phospho-D-tyrosine]”, for which the “G′ from frequency sweeps” value in the data set on alkaline phosphatase (5% w/v) is about 2030 Pa. In addition, in the data set on alkaline phosphatase (37 °C), the “Strain at complete deformation (G′ and G″ intersect)” value is recorded as about 192%. In the data set with alkaline phosphatase, the “Strain at which the weaker network breaks” value was about 0.527% and the “Strain at which the stronger second network or entanglement breaks” value is recorded as about 4.81%. The “Live/Dead staining result at 500 μM” value with NCTC 929 cells [4] is “demonstrated cytotoxicity”.
For “tetrabenzylamine-tetraglycine-L-lysine-O-phospho-L-tyrosine [(NPhe)4GGGGKY(p)-OH]”, in the data set on NCTC 929 cells [4], the “Live/Dead staining result at 500 μM” value is “no observable cytotoxic effects on live cells”.
